Here are results for two compounds from patent US8476221B2, “Methods and compositions for the treatment of metabolic disorders” (Halimed Pharmaceuticals, Inc., priority 2011, dated 2013).

Data set [1] is described as follows: Body weight and food intake in Sprague-Dawley and obese Zucker (fa/fa) rats. Type of data set: in vivo. Particulars: for Avg. Wt. Change (g) Days 1-10 / Food Consumption. (g) Days 1-10: 1 mg/kg IV daily Days 1-10; for Avg. Wt. Change (g) Days 11-20 / Food Consumption. (g) Days 11-20: saline Days 11-20 after 1 mg/kg IV daily Days 1-10. Here is the method:
Male Sprague-Dawley (SD, Harlan Laboratories) rats (210-220 g at initiation of experiments) and genetically obese Zucker (fa/fa) (ZF, Harlan Laboratories) rats (210-220 g at initiation of experiments) were housed individually under a 12 h:12 h light:dark schedule (lights on at 7:00 AM). All compound administration, animal and food weighing were performed between noon and 1 PM (during the light phase of the animals' circadian illumination schedule). Each rat was provided standard rat chow and water ad libitum throughout the experiments.
Each animal received either 1 mg/kg HPI-363 dissolved in saline IV (Treated) or saline (Vehicle or Untreated) for ten consecutive days followed by daily injections of saline for ten additional days. At the start of the experiment, each animal was weighed and single-housed with rat chow and water, with subsequent weighing occurring at 24 hr increments for 20 days. For food intake, 100 g of rat chow was placed in each animal's hopper and leftover chow in the hopper was collected and weighed every 24 hr for 20 days at the time of animal weighing. Chow was then replenished to 100 g each day. As a monitor of the general health of the animals, rats were observed twice daily.

The nature of data set [2]: Toxicity study in monkeys, serum chemistry (cholesterol, triglycerides, liver enzymes). Type of data set: in vivo. Here is the method:
A study was conducted to evaluate toxicity in monkeys with HPI-363 at doses of 0.05 to 5 mg/kg. The compound was administered as a slow IV push over 20 to 30 seconds. Six animals (3 males and 3 females) approximately 2 years old and weighing 2.1-2.5 kilograms were dosed once daily for 14 days. Blood chemistry was collected on Days 1-15. […] A reduction of 27%-40% in levels of cholesterol and triglycerides respectively from pre-dose was observed over 15 days. The lipid-lowering effect occurred within a 12 hr-period.

Another data set concerns the target NT2 receptor (Homo sapiens, UniProt O95665). Particulars: receptor binding studies; cited from earlier work.
In another data set the target is NT1 receptor (Homo sapiens, UniProt P30989). Particulars: receptor binding studies; cited from earlier work.
Sequence of NT1 receptor (P30989 whole entry): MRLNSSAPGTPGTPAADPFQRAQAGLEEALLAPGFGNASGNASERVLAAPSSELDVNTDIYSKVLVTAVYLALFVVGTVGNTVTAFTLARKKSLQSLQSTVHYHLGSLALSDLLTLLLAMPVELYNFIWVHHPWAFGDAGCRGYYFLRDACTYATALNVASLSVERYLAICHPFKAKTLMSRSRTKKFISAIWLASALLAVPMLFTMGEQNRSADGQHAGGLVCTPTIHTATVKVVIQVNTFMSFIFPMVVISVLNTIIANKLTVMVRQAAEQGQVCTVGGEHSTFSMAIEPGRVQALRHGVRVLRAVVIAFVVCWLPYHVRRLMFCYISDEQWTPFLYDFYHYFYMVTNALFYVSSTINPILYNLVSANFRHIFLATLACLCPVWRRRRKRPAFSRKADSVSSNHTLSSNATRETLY

Non-standard residues stand in square brackets, D forms with d. Residues, ends and D or L forms follow the SMILES beside them. *: point of attachment. Tle = CC(C)(C)[C@H](N)C(=O)O; X1 = CCNCCCC(=O)*

Sequence of NT2 receptor (O95665 whole entry): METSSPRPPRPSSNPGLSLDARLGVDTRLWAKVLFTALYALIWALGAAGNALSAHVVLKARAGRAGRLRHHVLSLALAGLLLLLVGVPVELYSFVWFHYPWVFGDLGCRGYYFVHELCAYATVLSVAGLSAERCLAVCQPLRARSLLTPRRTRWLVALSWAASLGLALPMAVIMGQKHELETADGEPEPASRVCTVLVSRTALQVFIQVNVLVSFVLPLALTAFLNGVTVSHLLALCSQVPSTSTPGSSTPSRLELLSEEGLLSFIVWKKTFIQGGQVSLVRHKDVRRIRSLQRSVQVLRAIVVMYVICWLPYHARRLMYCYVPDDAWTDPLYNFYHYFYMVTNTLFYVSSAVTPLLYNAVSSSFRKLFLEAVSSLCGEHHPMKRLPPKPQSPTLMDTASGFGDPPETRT

With `CCNCCCC(=O)N[C@@H](CCCNC(=N)N)C(=O)N1CCC[C@H]1C(=O)N[C@@H](Cc1c[nH]c2ccccc12)C(=O)N[C@H](C(=O)N[C@@H](CC(C)C)C(=O)O)C(C)(C)C` [HPI-363] (X1-RPW[Tle]L-OH), the “General health, observed twice daily” value in data set [1] (SD and ZF rats, 20 days) is listed as “No deviations from normal affect”. In data set [1] (Sprague-Dawley (SD) rats), the “Avg. Wt. Change (g) Days 1-10” value was found to be 17.4 g, the “Food Consumption. (g) Days 1-10” value stood at 148.5 g, the “Avg. Wt. Change (g) Days 11-20” value is on record as 40.0 g and the “Food Consumption. (g) Days 11-20” value is 222.0 g. In addition, in data set [1] (Zucker fa/fa (ZF) rats), the “Avg. Wt. Change (g) Days 1-10” value is 54.6 g, the “Food Consumption. (g) Days 1-10” value is reported as 252.7 g, the “Avg. Wt. Change (g) Days 11-20” value came out at 88.5 g and the “Food Consumption. (g) Days 11-20” value is given as 402.0 g. In addition, in data set [1] (both SD and ZF rats, 1 mg/kg IV Days 1-10), the Food intake entry is recorded as “decreased food intake”. For the same compound, the Weight gain entry in data set [1] (both SD and ZF rats, 1 mg/kg IV Days 1-10, maintained after cessation (Days 11-20)) is on record as “inhibition of weight gain”. The “Time in which the lipid-lowering effect occurred” value in data set [2] (0.05 to 5 mg/kg IV) was at most 12 h. Besides, the “Effect on cholesterol and triglycerides (serum chemistry)” value in data set [2] (0.05 to 5 mg/kg IV once daily for 14 days) was “dose dependent effect”. Further, the Liver enzymes result in data set [2] (0.05 to 5 mg/kg IV once daily for 14 days, normalized within the 15 days of the study) was “transient rise”. Further, the “Reduction in levels of cholesterol from pre-dose” value in data set [2] (0.05 to 5 mg/kg slow IV push once daily for 14 days, over 15 days) came out at 27%.

Regarding “Lys-(psiCH2NH)-Lys-Pro-Trp-Ter-Leu-Leu-OEt [PD149163]”, the “Affinity for the NT2 receptor” value at NT2 receptor is reported as “no detectable affinity”. Also, at NT1 receptor, the “Affinity for the NT1 receptor” value was “has affinity”.
